# According to patent publication US9090593B2, “Bicyclic compounds as Pim inhibitors” (AMGEN INC., priority 2010, dated 2015):
# Where two headings read alike, the source gives them in different places.
# How the values were obtained:
# [1] = target: T1, full length recombinant Pim-1 protein (Homo sapiens, UniProt P11309); assay: Pim-1 enzyme assay (HTRF, phosphorylation of biotinylated-BAD (S112) peptide); assay type: biochemical; settings: enzyme assay, Pim-1; read-out: Pim_1_IC50
# T1 construct: by full length recombinant Pim-1, Pim-2, or Pim-3 protein; hexahistidine tag followed by a thrombin cleavage site (N); made in house; host or cells: Sf9 (baculovirus) or E. coli (pET28)
# T1 sequence (P11309 whole entry): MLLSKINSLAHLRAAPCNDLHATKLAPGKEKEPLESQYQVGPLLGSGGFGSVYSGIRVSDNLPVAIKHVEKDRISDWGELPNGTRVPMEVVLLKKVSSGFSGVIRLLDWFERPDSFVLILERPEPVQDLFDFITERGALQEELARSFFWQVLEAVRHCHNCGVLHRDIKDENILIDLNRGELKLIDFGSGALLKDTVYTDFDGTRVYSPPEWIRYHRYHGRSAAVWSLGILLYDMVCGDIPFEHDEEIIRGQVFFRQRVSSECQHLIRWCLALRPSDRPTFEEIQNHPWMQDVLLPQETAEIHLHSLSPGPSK
# How it was run: (§1)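 Kinase: full-length human Pim-1/Pim-2, His6-thrombin tagged. Substrate biotin-BAD (S112) peptide. Buffer 60 mM Hepes pH 7.0, 0.05% BSA, 2 mM DTT. Stop 3 mM EDTA. Detection HTRF (Eu anti-pBAD/SA-APC). IC50 by 4-parameter logistic on POC.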
# [2] = target: T2, full length recombinant Pim-3 protein (Homo sapiens, UniProt Q86V86); assay: Pim-3 enzyme assay (HTRF, phosphorylation of biotinylated-BAD (S112) peptide); assay type: biochemical; settings: read-out: Pim3 IC50
# T2 construct: by full length recombinant Pim-1, Pim-2, or Pim-3 protein; purchased Millipore (UK)
# Description: Pim-3 was purchased from Millipore (UK).
# The phosphorylation of biotinylated-BAD (S112) peptide by full length recombinant Pim-1, Pim-2, or Pim-3 protein was detected with streptavidin:Allophycocyanin (APC) conjugate and a europium (Eu) labeled antibody directed against phosphorylated-BAD (S112). […] The fluorescence is directly proportional to the amount of phosphorylated BAD peptide present in the reaction.
# A reference compound was included on each assay plate in order to validate that plate; on one plate of every assay run, two additional reference compounds were included.
# The final buffer conditions were as follows: 60 mM Hepes, pH 7.0, 0.05% BSA, 2 mM DTT. […] The reaction was stopped by the addition of 3 mM EDTA, and fluorescence was measured by an HTRF® Rubystar microplate reader. For each plate, percent of control (POC) values were calculated for each well. Values for the IC50 IP were estimated using a standard 4-parameter logistic model.
# [3] = target: T3, Pim-1 stably transfected into the U2OS human osteogenic sarcoma line (Homo sapiens, UniProt P11309); assay: Pim cell assay, phospho-BAD normalized against total BAD, U2OS stably transfected with Pim-1; assay type: cell-based; settings: read-out: Pim1_Cell_IC50
# T3 construct: expressed in transfected cells; host or cells: U2OS human osteogenic sarcoma line
# T3 sequence (P11309 whole entry): as the sequence (P11309 whole entry) above
# How it was run: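 U2OS cells stably expressing Pim-1 or Pim-2 were plated overnight at 37 °C, then dosed over a 10-point curve (final 0.3% DMSO; DMSO alone as high control). Lysates assayed for phospho- and total BAD by Meso Scale immunoassay; % phosphoprotein = (2×phospho)/(phospho+total)×100.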
# [4] = target: T4, full length recombinant Pim-2 protein (Homo sapiens, UniProt Q9P1W9); assay: Pim-2 enzyme assay (HTRF, phosphorylation of biotinylated-BAD (S112) peptide); assay type: biochemical; settings: enzyme assay, Pim-2; read-out: Pim2_IC50
# T4 construct: by full length recombinant Pim-1, Pim-2, or Pim-3 protein; hexahistidine tag followed by a thrombin cleavage site (N); made in house; host or cells: Sf9 (baculovirus) or E. coli (pET28)
# T4 sequence (Q9P1W9 whole entry): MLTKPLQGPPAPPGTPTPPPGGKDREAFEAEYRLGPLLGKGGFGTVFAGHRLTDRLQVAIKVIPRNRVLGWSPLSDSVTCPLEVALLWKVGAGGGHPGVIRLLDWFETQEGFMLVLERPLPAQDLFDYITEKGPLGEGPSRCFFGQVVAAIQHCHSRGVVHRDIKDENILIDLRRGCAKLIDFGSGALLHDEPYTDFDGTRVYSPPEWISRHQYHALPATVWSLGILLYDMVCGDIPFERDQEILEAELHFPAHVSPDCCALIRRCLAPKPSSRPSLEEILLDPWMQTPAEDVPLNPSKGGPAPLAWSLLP
# How it was run: as §1
# [5] = U2OS cells stably transfected with Pim-1, phospho-BAD, high dose […]
Structure (SMILES),IC50 [1] [µM],IC50 [2] [µM],"IC50 [3, 5] [µM]",IC50 [4] [µM],IC50 [3] [µM]
"CN(C)c1cccc(-c2ccc3[nH]nc(-c4cncc(N5CCC(N)CC5)n4)c3c2)c1 [Example 108, 1-(6-(5-(3-(dimethylamino)phenyl)-1H-indazol-3-yl)-2-pyrazinyl)-4-piperidinamine]",0.009,0.006,0.866,0.153,–
"Fc1cccc(F)c1-c1ccc2[nH]cc(-c3cncc(NC4CCCCC4)n3)c2c1 [Example 202, N-cyclohexyl-6-(5-(2,6-difluorophenyl)-1H-indol-3-yl)-2-pyrazinamine]",0.021,0.051,8.85,0.414,–
"c1cnnc(-c2ccc3[nH]nc(-c4cncc(O[C@@H]5CCCNC5)n4)c3c2)c1 [Example 149, 3-(6-((3R)-3-piperidinyloxy)-2-pyrazinyl)-5-(3-pyridazinyl)-1H-indazole]",0.006,0.007,0.292,0.048,–
"CC(C)Oc1cncc(-c2ccc3[nH]nc(-c4cncc(O[C@@H]5CCCNC5)n4)c3c2)c1 [Example 120, 5-(5-(1-methylethoxy)-3-pyridinyl)-3-(6-((3R)-3-piperidinyloxy)-2-pyrazinyl)-1H-indazole]",0.003,0.008,0.145,0.098,–
"C1=C(c2ccc3[nH]nc(-c4cncc(O[C@@H]5CCCNC5)n4)c3c2)COCC1 [Example 154, 5-(5,6-dihydro-2H-pyran-3-yl)-3-(6-((3R)-3-piperidinyloxy)-2-pyrazinyl)-1H-indazole]",0.015,0.016,0.772,0.071,–
"O=C1CN(c2cncc(-c3c[nH]c4ccc(-c5c(F)cccc5F)cc34)n2)CCN1 [Example 204, 4-(6-(5-(2,6-difluorophenyl)-1H-indol-3-yl)-2-pyrazinyl)-2-piperazinone]",0.08,0.098,–,0.987,2.23
"NC1CCN(c2cncc(-c3n[nH]c4ccc(N5CCOCC5)cc34)n2)CC1 [Example 89, 1-(6-(5-(4-morpholinyl)-1H-indazol-3-yl)-2-pyrazinyl)-4-piperidinamine]",0.028,0.049,0.868,0.303,–
"COc1nccc(-c2ccc3[nH]nc(-c4cncc(O[C@@H]5CCCNC5)n4)c3c2)n1 [Example 152, 5-(2-methoxy-4-pyrimidinyl)-3-(6-((3R)-3-piperidinyloxy)-2-pyrazinyl)-1H-indazole]",0.007,0.007,1.06,0.036,–
"O=c1[nH]cncc1-c1ccc2[nH]nc(-c3cncc(O[C@@H]4CCCNC4)n3)c2c1 [Example 125, 5-(3-(6-((3R)-3-piperidinyloxy)-2-pyrazinyl)-1H-indazol-5-yl)-4(3H)-pyrimidinone]",0.021,0.016,–,0.08,–
"Oc1nccc(-c2ccc3[nH]nc(-c4cncc(O[C@@H]5CCCNC5)n4)c3c2)n1 [Example 155, 4-(3-(6-((3R)-3-piperidinyloxy)-2-pyrazinyl)-1H-indazol-5-yl)-2-pyrimidinol]",0.036,0.027,–,0.108,–
"Nc1cccnc1-c1ccc2[nH]nc(-c3cncc(N4CCC(N)CC4)n3)c2c1 [Example 94, 2-(3-(6-(4-amino-1-piperidinyl)-2-pyrazinyl)-1H-indazol-5-yl)-3-pyridinamine]",0.086,0.118,–,> 1,–
"C[C@@H]1CCNC[C@H]1Oc1cncc(-c2n[nH]c3ccc(-c4c(F)cccc4F)cc23)n1 [Example 197, 5-(2,6-difluorophenyl)-3-(6-(((3S,4R)-4-methyl-3-piperidinyl)oxy)-2-pyrazinyl)-1H-indazole]",0.037,0.018,–,0.187,–
"CC(C)Oc1cncc(-c2ccc3[nH]cc(-c4ccc(F)cn4)c3c2)n1 [Example 215, 3-(5-fluoro-2-pyridinyl)-5-(6-(1-methylethoxy)-2-pyrazinyl)-1H-indole]",1.64,0.538,–,> 3,–
